These results are taken from patent US20230117592A1 (SRI International, priority 2019, published 2023).

The target in experiment [1] is T1, 12-LOX (Homo sapiens, UniProt P18054).
T1 sequence (P18054 1-663): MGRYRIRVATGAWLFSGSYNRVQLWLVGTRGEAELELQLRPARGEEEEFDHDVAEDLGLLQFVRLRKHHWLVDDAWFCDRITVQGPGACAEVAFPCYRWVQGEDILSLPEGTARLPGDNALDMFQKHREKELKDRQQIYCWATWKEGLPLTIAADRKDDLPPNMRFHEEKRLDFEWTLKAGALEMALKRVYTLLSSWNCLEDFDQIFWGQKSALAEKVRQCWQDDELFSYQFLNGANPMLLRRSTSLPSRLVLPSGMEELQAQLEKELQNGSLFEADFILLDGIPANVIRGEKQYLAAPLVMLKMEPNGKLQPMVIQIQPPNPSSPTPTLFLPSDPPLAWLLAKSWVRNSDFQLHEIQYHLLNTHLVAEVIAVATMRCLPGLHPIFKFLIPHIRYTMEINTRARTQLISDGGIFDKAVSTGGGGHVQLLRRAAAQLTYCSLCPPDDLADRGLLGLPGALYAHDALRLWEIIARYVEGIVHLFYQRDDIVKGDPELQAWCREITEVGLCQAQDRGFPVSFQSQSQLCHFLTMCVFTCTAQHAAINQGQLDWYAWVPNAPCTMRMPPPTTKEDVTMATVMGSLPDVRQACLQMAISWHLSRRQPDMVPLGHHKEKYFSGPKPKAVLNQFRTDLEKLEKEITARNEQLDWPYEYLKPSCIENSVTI
Kind of experiment: 12-LOX fluorescent assay (in vitro lipoxygenase inhibition). Type of experiment: biochemical. The conditions noted are these: 100 nM recombinant 12-LOX, 20 μM AA, DHR123 fluorescence; several values in a cell = repeat determinations; read-out: IC50 (μM) values for in vitro lipoxygenase inhibition, 12-LOX. The method, then: 12-LOX/15-LOX Fluorescent Assay
The enzyme assay (100 ul) contained 50 mM Tris, pH 7.5, 0.05% Tween-20, 20 μM AA/LA, 1 μM DHR123, and 100 nM recombinant 12-LOX enzyme/50 nM recombinant 15-LOX enzyme. Inhibitors (dissolved in DMSO) were plated at 1 μL into 96-well assay microplates followed by a 40 μL addition of a solution containing 12-LOX/15-LOX enzyme. Enzyme was pre-incubated with compounds for 15 mins. The assay was initiated by the addition of a 40 μL substrate solution containing AA/LA, and 20μL addition of a solution containing DHR123. […] Percent inhibition was calculated for each compound dose for IC50 curve fitting using 4 Parameter Logistic Model or Sigmoidal Dose-Response Model.

Experiment [2] deals with T2, 5-LOX (Homo sapiens, UniProt P09917).
T2 sequence (P09917 1-674): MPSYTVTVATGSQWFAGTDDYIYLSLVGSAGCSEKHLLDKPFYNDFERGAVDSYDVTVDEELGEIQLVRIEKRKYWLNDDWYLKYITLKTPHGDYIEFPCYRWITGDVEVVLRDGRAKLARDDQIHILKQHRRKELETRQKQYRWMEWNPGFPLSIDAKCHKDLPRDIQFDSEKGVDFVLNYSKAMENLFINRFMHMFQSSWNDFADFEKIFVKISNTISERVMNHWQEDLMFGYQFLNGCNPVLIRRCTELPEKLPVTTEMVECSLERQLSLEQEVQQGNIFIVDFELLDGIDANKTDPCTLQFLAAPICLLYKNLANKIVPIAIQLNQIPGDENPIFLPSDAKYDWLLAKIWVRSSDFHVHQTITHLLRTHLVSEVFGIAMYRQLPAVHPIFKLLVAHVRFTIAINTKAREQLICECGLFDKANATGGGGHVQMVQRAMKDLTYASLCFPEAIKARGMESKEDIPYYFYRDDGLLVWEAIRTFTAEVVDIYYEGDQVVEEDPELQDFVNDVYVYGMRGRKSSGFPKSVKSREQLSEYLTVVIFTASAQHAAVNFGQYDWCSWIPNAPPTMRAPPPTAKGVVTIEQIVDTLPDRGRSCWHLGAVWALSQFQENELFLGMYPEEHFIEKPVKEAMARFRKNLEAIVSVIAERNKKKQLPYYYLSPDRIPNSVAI
Kind of experiment: 5-LOX fluorescent assay (in vitro lipoxygenase inhibition). Type of experiment: biochemical. The conditions noted are these: recombinant 5-LOX cell lysate, 20 μM AA, DHR123 fluorescence; several values in a cell = repeat determinations; read-out: IC50 (μM) values for in vitro lipoxygenase inhibition, 5-LOX. On the procedure: 5-LOX FI assay Fluorescent Assay
The enzyme assay (100 μL) contained 50 mM Tris, pH 7.5, 0.1 mM EDTA, 0.3 mM CaCl2, 20 μM AA, 100 μM ATP, 1 μM DHR123, and recombinant 5-LOX cell lysate (0.5 μL/100 μL). Inhibitors (dissolved in DMSO) were plated at 1 μL into 96-well assay microplates followed by a 40 μL addition of a solution containing 5-LOX enzyme. Enzyme was pre-incubated with compounds for 15 mins. The assay was initiated by the addition of a 40 μL substrate solution containing AA and ATP, and 20 μL addition of a solution containing DHR123. […] Percent inhibition was calculated for each compound dose for IC50 curve fitting using 4 Parameter Logistic Model or Sigmoidal Dose-Response Model.

Values joined by “and” are separate entries in the source; they are usually repeats but may differ in a detail not shown here. Equal values may be shown once.

Regarding `Fc1c(Nc2ccccc2)ccc2c1CCN2CCn1cncn1` [SS20308-0264-01, 1-(2-(1H-1,2,4-triazol-1-yl)ethyl)-4-fluoro-N-phenylindolin-5-amine], the IC50 in experiment [1] was 0.05 µM; in experiment [2], 0.27 µM.

As to `CN(C)CC1(CNc2cc(Nc3ccc(F)cc3)ccc2-c2ccccc2)COC1` [SS20308-0184-01, N^2-((3-((dimethylamino)methyl)oxetan-3-yl)methyl)-N^4-(4-fluorophenyl)biphenyl-2,4-diamine], the IC50 in experiment [1] amounted to 0.18 µM; in experiment [2], 0.16 µM. `COc1ccc(CNc2cccc(Nc3ccccc3)c2OCCN(C)C)cc1` [SS20308-0052-01, 2-(2-(dimethylamino)ethoxy)-N^1-(4-methoxybenzyl)-N^3-phenylbenzene-1,3-diamine]: the results for the IC50 in experiment [1] and in experiment [2] were 0.62 µM and 1.32 µM, respectively. In the case of `FC(F)(F)C(Nc1ccc(NCCn2cncn2)c(-c2ccccc2)c1)c1ccccc1` (stereo not shown) [SS20308-0226-01, N^2-(2-(1H-1,2,4-triazol-1-yl)ethyl)-N^5-(2,2,2-trifluoro-1-phenylethyl)-[1,1′-biphenyl]-2,5-diamine], the IC50 in experiment [1] came out at 0.06 µM; in experiment [2], 0.14 µM.

In the case of `CN(CCn1cncn1)c1cc(Nc2ccccc2)ccc1-c1ccccc1` [SS20308-0131-01, N2-(2-(1H-1,2,4-triazol-1-yl)ethyl)-N2-methyl-N4-phenyl-[1,1′-biphenyl]-2,4-diamine], the IC50 in experiment [2] came to 0.25 µM. Consider `c1ccc(-c2cc(NCC3CCCCC3)ccc2NCCn2cncn2)cc1` [SS20308-0217-01, N^2-(2-(1H-1,2,4-triazol-1-yl)ethyl)-N^5-(cyclohexylmethyl)-[1,1′-biphenyl]-2,5-diamine], for which the IC50 in experiment [1] was 0.02 µM and 0.04 µM; in experiment [2], 0.02 µM and 0.06 µM. In the case of `Cc1cc(Nc2ccc(Cl)c(F)c2)ccc1NCC1(Cn2ccnc2)COC1` [SS20308-0328-01, N^1-((3-((1H-imidazol-1-yl)methyl)oxetan-3-yl)methyl)-N^4-(4-chloro-3-fluorophenyl)-2-methylbenzene-1,4-diamine], the IC50 in experiment [1] is 0.03 µM; in experiment [2] it was 0.04 µM. For `CN(C)CCNc1cc(Nc2ccccc2)ccc1-c1ccccc1` [SS20308-0130-01, N2-(2-(dimethylamino)ethyl)-N4-phenyl-[1,1′-biphenyl]-2,4-diamine] the same measures were 0.25 µM and 0.24 µM. In the same order, the values of `FC(F)(F)C(Nc1ccc(NCCCN2CCOCC2)c(C2CCOCC2)c1)c1ccccc1` (stereo not shown) [SS20308-0315-01, N^1-(3-morpholinopropyl)-2-(tetrahydro-2H-pyran-4-yl)-N^4-(2,2,2-trifluoro-1-phenylethyl)benzene-1,4-diamine] are 0.06 µM and 0.07 µM. For `c1ccc(Nc2cccc(NCCn3cncn3)c2)cc1` [SS20308-0223-01, N^1-(2-(1H-1,2,4-triazol-1-yl)ethyl)-N^3-phenylbenzene-1,3-diamine] the same measures were 0.11 µM and 0.49 µM. Consider `N#Cc1ccc(-c2ccc(Nc3ccccc3)cc2NCCn2cncn2)s1` [SS20308-0194-01, 5-(2-(2-(1H-1,2,4-triazol-1-yl)ethylamino)-4-(phenylamino)phenyl)thiophene-2-carbonitrile], for which the IC50 amounted to 0.13 µM in experiment [1] and 0.19 µM in experiment [2]. Take `CN(C)CCCc1ccc(Nc2ccccc2Cl)c(Nc2ccccc2Cl)c1` [SS20308-0198-01, N^1,N^2-bis(2-chlorophenyl)-4-(3-(dimethylamino)propyl)benzene-1,2-diamine]: the IC50 in experiment [1] came to 0.32 µM; in experiment [2], 0.25 µM. In the same order, the values of `CN(C)CCCc1cc(Nc2ccc(F)cc2Cl)c(F)cc1Nc1ccc(F)cc1Cl` [SS20308-0199-01, N^1,N^4-bis(2-chloro-4-fluorophenyl)-2-(3-(dimethylamino)propyl)-5-fluorobenzene-1,4-diamine] are 0.51 µM and 0.68 µM. `FC1(F)CCC(CNc2cccc(NCCn3cncn3)n2)CC1` [SS20308-0250-01, N^2-(2-(1H-1,2,4-triazol-1-yl)ethyl)-N^6-((4,4-difluorocyclohexyl)methyl)pyridine-2,6-diamine]: the IC50 turned out to be 0.32 µM in experiment [1] and 1.26 µM in experiment [2]. For `Fc1ccc(Nc2ccc(NCC3(Cn4cncn4)COC3)c(OC(F)(F)F)c2)cc1` [SS20308-0319-01, N^1-((3-((1H-1,2,4-triazol-1-yl)methyl)oxetan-3-yl)methyl)-N^4-(4-fluorophenyl)-2-(trifluoromethoxy)benzene-1,4-diamine] the same measures were 0.05 µM and 0.15 µM. In the case of `Cc1cccc(C)c1-c1ccc(Nc2ccccc2)cc1NCCn1cncn1` [SS20308-0133-01, N2-(2-(1H-1,2,4-triazol-1-yl)ethyl)-2′,6′-dimethyl-N4-phenyl-[1,1′-biphenyl]-2,4-diamine], the IC50 in experiment [1] is 0.14 µM; in experiment [2], 0.22 µM. For the compound `Cn1nccc1-c1ccc(Nc2ccccc2)cc1NCCn1cncn1` [SS20308-0190-01, N^3-(2-(1H-1,2,4-triazol-1-yl)ethyl)-4-(1-methyl-1H-pyrazol-5-yl)-N^1-phenylbenzene-1,3-diamine], the figures for the IC50 in experiment [1] and in experiment [2] were 0.93 µM and 1.35 µM, respectively. In the case of `Fc1ccc(Nc2ccc3c(c2)N(CCn2cncn2)CC3)cc1` [SS20308-0201-01, 1-(2-(1H-1,2,4-triazol-1-yl)ethyl)-N-(4-fluorophenyl)indolin-6-amine], the IC50 in experiment [1] came to 0.05 µM; in experiment [2], 0.19 µM.

Consider `FC(F)(F)C(Nc1ccc(NCCCN2CCOCC2)c(C2CCCCC2)c1)c1ccccc1` (stereo not shown) [SS20308-0325-01, 2-cyclohexyl-N^1-(3-morpholinopropyl)-N^4-(2,2,2-trifluoro-1-phenylethyl)benzene-1,4-diamine], for which the IC50 in experiment [1] amounted to 0.03 µM; in experiment [2] it was 0.04 µM. `Cc1cccc(Nc2ccc(NCC3(Cn4cncn4)COC3)c(C)c2)n1` [SS20308-0289-01, N^1-((3-((1H-1,2,4-triazol-1-yl)methyl)oxetan-3-yl)methyl)-2-methyl-N^4-(6-methylpyridin-2-yl)benzene-1,4-diamine]: the IC50 in experiment [1] is 0.07 µM and 0.15 µM; in experiment [2], 0.25 µM and 0.61 µM.

Consider `c1ccc(CNc2ccc(NCCn3cncn3)c(-c3cccnc3)c2)cc1` [SS20308-0216-01, N^1-(2-(1H-1,2,4-triazol-1-yl)ethyl)-N^4-benzyl-2-(pyridin-3-yl)benzene-1,4-diamine], for which the IC50 is 0.03 µM in experiment [1] and 0.04 µM in experiment [2]. As for `Fc1c(Nc2ccccc2)ccc(-c2ccccc2)c1NCCn1cncn1` [SS20308-0148-01, N^2-(2-(1H-1,2,4-triazol-1-yl)ethyl)-3-fluoro-N^4-phenylbiphenyl-2,4-diamine], the IC50 in experiment [2] was 3.77 µM and 0.76 µM.

For `Cc1cc(Nc2ccc(F)cc2Cl)ccc1NCC1(CN2CCCC2)COC1` [SS20308-0310-01, N^4-(2-chloro-4-fluorophenyl)-2-methyl-N^1-((3-(pyrrolidin-1-ylmethyl)oxetan-3-yl)methyl)benzene-1,4-diamine], the IC50 in experiment [2] is 0.11 µM and 0.14 µM and 0.1 µM and 0.19 µM and 0.29 µM.

As usually defined, the IC50 is the point on the concentration scale where inhibition reaches its midpoint.
